pIC50: −log10 of the molar value. Values after ≈ are worked out from the molar mass of the structure shown. One block for each compound: values may come before it.
Legend:
[1] = target: T1, Proteasome Macropain subunit MB1 (Homo sapiens, UniProt P28074); assay: Inhibition of chymotrypsin-like activity of purified human erythrocyte 20S proteasome assessed as decrease in AMC hydrolysis using Suc-LLVY-AMC as substrate preincubated for 10 mins and measured by fluorescence based method
T1 sequence (P28074 whole entry): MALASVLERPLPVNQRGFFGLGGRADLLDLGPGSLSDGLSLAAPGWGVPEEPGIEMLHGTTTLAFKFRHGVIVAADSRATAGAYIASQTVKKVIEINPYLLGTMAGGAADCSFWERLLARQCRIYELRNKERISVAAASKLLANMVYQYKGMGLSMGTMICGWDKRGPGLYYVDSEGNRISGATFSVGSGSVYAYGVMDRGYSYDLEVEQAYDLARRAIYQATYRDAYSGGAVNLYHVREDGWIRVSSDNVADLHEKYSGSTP

[2] = target: T1, Proteasome Macropain subunit MB1; assay: Inhibition of chymotrypsin-like activity of purified human 20S proteasome expressed in human Jurkat cells assessed as decrease in AMC hydrolysis using Suc-Leu-Leu-Val-Tyr-AMC as substrate incubated for 2 hrs by fluorescence based method
[3] = target: T1, Proteasome Macropain subunit MB1; assay: Inhibition of chymotrypsin-like activity of human 26S proteasome in human Jurkat cells assessed as decrease in AMC hydrolysis using Z-Gly-Gly-Leu-AMC as substrate after 24 hrs by fluorescence based method; assay type: cell-based
[4] = Inhibition of chymotrypsin-like activity of rabbit 20S proteasome assessed as AMC hydrolysis using Suc-LLVY-AMC as substrate incubated for 2hrs by fluorescence based method; parameters: species or system Oryctolagus cuniculus
[5] = target: T1, Proteasome Macropain subunit MB1; assay: Inhibition of chymotrypsin-like activity of purified human 20S proteasome assessed as decrease in AMC hydrolysis using Suc-Leu-Leu-Val-Tyr-AMC as substrate incubated for 30 mins by fluorometric analysis
[6] = target: T2, Proteasome subunit beta type-5 (Rattus norvegicus, UniProt P28075); assay: Inhibition of chymotrypsin-like activity of rat liver 26 proteasome assessed as decrease in fluorescence using succinyl-Leu-Leu-Val-Tyr-4-methylcoumaryl-7-amide as substrate preincubated for 30 mins followed by addition of substrate and measured after 1 hr by fluorescence based method
T2 sequence (P28075 whole entry): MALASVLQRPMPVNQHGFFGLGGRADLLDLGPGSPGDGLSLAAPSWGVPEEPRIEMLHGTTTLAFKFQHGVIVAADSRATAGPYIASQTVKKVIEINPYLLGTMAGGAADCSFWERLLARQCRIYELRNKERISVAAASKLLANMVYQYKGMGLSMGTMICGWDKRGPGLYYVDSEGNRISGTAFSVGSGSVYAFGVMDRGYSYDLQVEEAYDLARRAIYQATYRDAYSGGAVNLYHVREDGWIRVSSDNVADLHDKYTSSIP

[7] = target: T1, Proteasome Macropain subunit MB1; assay: Inhibition of chymotrypsin-like activity of human 26S proteasome extracted from human Jurkat cells assessed as decrease in AMC hydrolysis using […] as substrate after 90 mins by fluorometric analysis; assay type: cell-free
[8] = target: T1, Proteasome Macropain subunit MB1; assay: Inhibition of chymotrypsin-like activity of human 26S proteasome in human Jurkat cells assessed as decrease in AMC hydrolysis using […] as substrate preincubated for 12 hrs followed by addition of substrate and measured after 2 hrs by fluorometric analysis; assay type: cell-based
[9] = Inhibition of chymotrypsin-like activity of purified rabbit 20S proteasome assessed as decrease in AMC hydrolysis using Suc-Leu-Leu-Val-Tyr-AMC as substrate incubated for 30 mins by fluorescence based method; parameters: species or system Oryctolagus cuniculus
[10] = target: T1, Proteasome Macropain subunit MB1; assay: Inhibition of chymotrypsin-like activity of human 26S proteasome extracted from human LNCap cells assessed as decrease in AMC hydrolysis using Suc-Leu-Leu-Val-Tyr-AMC as substrate incubated for 60 mins by fluorescence based method; assay type: cell-free

SMILES: COc1ccc2c(c1)O[C@H]1c3ccc(O)cc3OC[C@@H]21
pIC50 [1]: < 4.00

SMILES: O=c1cc(-c2ccc(O)c(O)c2)oc2cc(O)cc(O)c12 [LUTEOLIN]
pIC50 [2]: 5.82
pIC50 [3]: 5.89

SMILES: O=c1c(O)c(-c2cc(O)c(O)c(O)c2)oc2cc(O)cc(O)c12 [MYRICETIN]
pIC50 [2]: 5.00
pIC50 [3]: 4.92

SMILES: O=c1c(O)c(-c2ccc(O)c(O)c2)oc2cc(O)cc(O)c12 [QUERCETIN]
pIC50 [2]: 5.46
pIC50 [3]: 5.70

SMILES: O=C1C[C@@H](c2ccc(O)c(O)c2)Oc2cc(O)cc(O)c21 [ERIODICTYOL]
pIC50 [2]: 4.79
pIC50 [3]: 4.84

SMILES: COc1cc(/C=C/C(=O)CC(=O)/C=C/c2ccc(O)c(OC)c2)ccc1O [CURCUMIN]
pIC50 [4]: 5.73

SMILES: O=C(O[C@@H]1Cc2c(O)cc(O)cc2O[C@H]1c1ccc(O)c(O)c1)c1cc(O)c(O)c(O)c1 [(-)-CATECHINGALLATE]
pIC50 [5]: 6.91

SMILES: C=CC(/C=C\c1ccc(O)cc1)c1ccc(O)cc1 (configuration not stated)
IC50 [6]: 0.018 µg/mL (≈ 0.0713 µM)

SMILES: O=C(O[C@@H]1Cc2c(O)cc(O)cc2O[C@H]1c1cc(O)c(O)c(O)c1)c1cc(O)c(O)c(O)c1 [GALLOCATECHIN GALLATE]
pIC50 [5]: 6.73

SMILES: O=C(O[C@@H]1Cc2c(O)cc(O)cc2O[C@@H]1c1ccc(O)c(O)c1)c1cc(O)c(O)c(O)c1 [EPICATECHIN GALLATE]
pIC50 [5]: 6.71

SMILES: O=C(O)c1cc(O)c(O)c(O)c1 [GALLIC ACID]
pIC50 [5]: 2.15

SMILES: O=C(O[C@@H]1Cc2c(O)cc(O)cc2O[C@@H]1c1cc(O)c(O)c(O)c1)c1cc(O)c(O)c(O)c1 [EPIGALOCATECHIN GALLATE]
pIC50 [5]: 6.71 to 7.07
pIC50 [7]: 5.00 to 6.00
pIC50 [8]: 4.74

SMILES: O=c1cc(-c2ccccc2)oc2cc(O)cc(O)c12 [CHRYSIN]
pIC50 [2]: 5.31
pIC50 [3]: 5.21

SMILES: Oc1cc(O)c2c(c1)O[C@H](c1cc(O)c(O)c(O)c1)[C@H](O)C2 [EPIGALLOCATECHIN]
pIC50 [5]: 2.92

SMILES: O=c1cc(-c2ccc(O)cc2)oc2cc(O)cc(O)c12 [APIGENIN]
pIC50 [2]: 5.64 to 5.74
pIC50 [3]: 5.72 to 6.00

SMILES: O=C1C[C@@H](c2ccc(O)cc2)Oc2cc(O)cc(O)c21 [NARINGENIN]
pIC50 [2]: 4.31
pIC50 [3]: 4.38

Now from value to compound:

pIC50 [1]: 5.31
SMILES: O=C(/C=C/c1ccc(O)cc1)c1ccc(O)cc1O [ISOLIQUIRITIGENIN]

pIC50 [1]: < 4.00
SMILES: O=c1c(-c2ccc(O)cc2)coc2cc(O)ccc12 [DAIDZEIN]

pIC50 [1]: < 4.00
SMILES: O=C1C[C@@H](c2ccc(O)cc2)Oc2cc(O)ccc21 [LIQUIRTIGENIN]

IC50 [6]: 0.046 µg/mL (≈ 0.178 µM)
SMILES: COc1cc(O)ccc1CCCc1ccc(O)cc1 [BROUSSONIN B]

pIC50 [1]: < 4.00
SMILES: COc1ccc(-c2coc3cc(O)ccc3c2=O)cc1 [FORMONONETIN]

pIC50 [1]: 5.03
pIC50 [9]: 4.59
pIC50 [10]: 4.15 to 4.19
SMILES: O=c1c(-c2ccc(O)cc2)coc2cc(O)cc(O)c12 [GENISTEIN]

IC50 [6]: 0.06 µg/mL (≈ 0.234 µM)
SMILES: Oc1ccc(CC2COc3cc(O)ccc3C2)cc1 (configuration not stated)

IC50 [6]: > 0.25 µg/mL
SMILES: COc1cc(O)c(C(=O)c2ccc(O)cc2)c(O)c1

pIC50 [2]: 4.98
pIC50 [3]: 4.96
SMILES: O=c1c(O)c(-c2ccc(O)cc2)oc2cc(O)cc(O)c12 [KAEMPFEROL]
